Experimental findings from PubChem BioAssay (NCI) are described below.

Among the test systems are A498 renal; CAKI-1 renal; COLO 205 colon; HCC-2998 colon; HCT-15 colon; KM12 colon; M14 melanoma; SNB-75 CNS; SR leukemia.
Common to all, as to experiment: DTP human tumour cell line panel, 48 h

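Where inhibition never reached the appropriate level, the endpoint shown equals the highest concentration tested. Otherwise, values were interpolated linearly from a five-concentration, 48-hour dose response in 96-well plates. GI50 = concentration required for 50% inhibition of growth. TGI denotes the concentration required for complete inhibition of growth.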

With `COc1ccc2c(c1)CCc1c(CO)c(COC(=O)NC(C)C)n(C)c1-2`, the TGI in the test on A498 renal was found to be 77.5 µM; in the test on CAKI-1 renal it was 77.8 µM; with COLO 205 colon, 4.68 µM; in the test with HCC-2998 colon it was 51.5 µM; with HCT-15 colon, 60.8 µM; in the test with KM12 colon, 28.2 µM. The TGI in the test with M14 melanoma is 33.8 µM; in the test with SNB-75 CNS, > 27.3 µM.

Regarding `c1cc[c]([Sn]([O]c2cccc3cccnc23)([O]c2cccc3cccnc23)[c]2ccccc2)cc1`, the GI50 with CAKI-1 renal is 0.179 µM; with COLO 205 colon, 1070 nM; with HCC-2998 colon, 2.48 µM; in the test on HCT-15 colon it was 0.186 µM; in the test with M14 melanoma it was 198 nM; with SNB-75 CNS it was 0.419 µM. Moreover, the total growth inhibition concentration (TGI) was 0.383 µM in the test on CAKI-1 renal; 2.28 µM in the test on COLO 205 colon; 9.62 µM in the test on HCC-2998 colon; 0.377 µM in the test with HCT-15 colon; 0.4 µM in the test on M14 melanoma; 1.45 µM in the test on SNB-75 CNS.

Take `CCOC(=O)C1=C(C(=O)OCC)C2(c3ccccc3)N(O1)c1ccccc1C2(C)C` (centres undefined): the TGI in the test with A498 renal, in the test on CAKI-1 renal, in the test on COLO 205 colon, with HCC-2998 colon, with KM12 colon and in the test with M14 melanoma was > 100 µM throughout. In the test with SNB-75 CNS, this molecule returned a TGI of 89.5 µM.

In the case of `Cc1ccccc1N=Nc1c(-c2ccccc2)nn(C(=O)CC(=O)Nc2cccc(Cl)c2)c1-c1ccccc1`, the TGI with A498 renal is 29.9 µM; in the test on CAKI-1 renal, > 100 µM; in the test on COLO 205 colon, 20.8 µM; in the test on HCC-2998 colon, > 31.6 µM; with HCT-15 colon, > 31.6 µM; in the test on M14 melanoma, > 31.6 µM. Besides, the values for the TGI in the test on SNB-75 CNS and with SR leukemia were > 31.6 µM and 20.3 µM, respectively.

Regarding `COC(=O)CC(=O)NCC1=CCC(=O)CC1`, the TGI in the test with A498 renal, with CAKI-1 renal, with COLO 205 colon, in the test with HCC-2998 colon, with HCT-15 colon and in the test on KM12 colon was > 100 µM in each case. The TGI in the test with M14 melanoma and in the test on SNB-75 CNS was > 100 µM each time.

Take `NC(=S)N/N=C1/CN(c2ccc(Cl)c(Cl)c2)CC(=O)C1c1nc2ccccc2s1` (centres undefined): the TGI in the test on A498 renal, in the test on CAKI-1 renal, in the test with COLO 205 colon, in the test on HCC-2998 colon, with HCT-15 colon and in the test on KM12 colon was > 100 µM in each case. The TGI in the test with M14 melanoma and in the test with SNB-75 CNS was > 100 µM each time.

For `CCN(CC)c1ccc2nc3ccc(N=Nc4ccc(O)cc4)cc3[n+](-c3ccccc3)c2c1`, the GI50 in the test on A498 renal was > 100 µM; in the test with CAKI-1 renal, 10.1 µM; in the test on COLO 205 colon it was 1260 nM; with HCC-2998 colon, 4.51 µM; with HCT-15 colon, 6.87 µM; with KM12 colon it was 3.7 µM. The GI50 in the test on M14 melanoma is 2290 nM; in the test on SNB-75 CNS, 10 µM. The TGI was > 100 µM in the test with A498 renal; > 100 µM in the test on CAKI-1 renal; 3.1 µM in the test with COLO 205 colon; 16.4 µM in the test on HCC-2998 colon; > 100 µM with HCT-15 colon; 16.4 µM in the test with KM12 colon. Further, the figures for the TGI in the test with M14 melanoma and in the test on SNB-75 CNS were 4.79 µM and 21.9 µM, respectively.

With `O=c1[nH]c(=O)n(C2CC(O)C(CO)O2)cc1COCC(F)(F)F` (centres undefined), the TGI in the test on A498 renal, with CAKI-1 renal, with COLO 205 colon, in the test on HCC-2998 colon, in the test on KM12 colon and with M14 melanoma was > 100 µM throughout. Besides, in the test with SNB-75 CNS, the concentration for total growth inhibition (TGI) is > 100 µM.

`COc1cc2c(c(OC)c1OC)-c1ccc(SC)c(=O)cc1C(CC(=O)Oc1cccc(F)c1)C2` (centres undefined): the TGI with CAKI-1 renal was > 73.7 µM; in the test on COLO 205 colon, 0.555 µM; in the test with HCC-2998 colon it was 0.426 µM; in the test with HCT-15 colon it was 1.97 µM; in the test with KM12 colon, 1.14 µM; in the test on SR leukemia it was 1.47 µM.

As to `Cc1cc2c(cc1CO)N1Cc3cc(C)c(CO)cc3N(C2)C1`, the total growth inhibition concentration (TGI) in the test with COLO 205 colon, in the test with HCC-2998 colon, in the test on KM12 colon, in the test with M14 melanoma and with SNB-75 CNS was > 100 µM in each case.

Turning to `CC(=O)NC1=C(N)C(=O)c2ccccc2C1=O`, the TGI in the test on A498 renal was > 100 µM; in the test on CAKI-1 renal, > 100 µM; with COLO 205 colon, 80.6 µM; in the test on HCC-2998 colon, > 100 µM; with HCT-15 colon it was > 100 µM; with KM12 colon, > 100 µM. Also, the concentration for total growth inhibition (TGI) in the test with M14 melanoma and in the test with SNB-75 CNS was > 100 µM throughout.

Consider `CCC(C)(O)c1cn(-c2ccc(S(=O)(=O)O)cc2)nn1` (centres undefined), for which the TGI in the test with A498 renal, in the test with CAKI-1 renal, with COLO 205 colon, in the test on HCC-2998 colon, with HCT-15 colon and in the test on KM12 colon was > 100 µM throughout. Besides, the TGI in the test with M14 melanoma and in the test with SNB-75 CNS was > 100 µM throughout.

Turning to `C=Cc1c(C)c2cc3[nH]c(cc4nc(cc5nc(cc1[nH]2)C(C)=C5CCC(=O)N(CC)CC)C(CCC(=O)N(CC)CC)=C4C)c(C)c3C=C`, the TGI with HCC-2998 colon was > 100 µM; with HCT-15 colon it was > 100 µM; with KM12 colon, > 100 µM; with M14 melanoma it was > 100 µM; with SNB-75 CNS, 88.3 µM; in the test with SR leukemia it was > 100 µM.

In the case of `O=c1c2cccnc2ncn1CCCN1CCCC1`, the TGI with CAKI-1 renal, in the test on COLO 205 colon, in the test with KM12 colon, in the test with M14 melanoma, in the test on SNB-75 CNS and in the test with SR leukemia was > 100 µM each time.

For `CCn1c(CSc2nc(-c3ccccc3)c(-c3ccccc3)[nH]2)n[nH]c1=S`, the TGI with A498 renal, with COLO 205 colon, in the test on HCC-2998 colon, in the test with HCT-15 colon, with KM12 colon and in the test with M14 melanoma was > 100 µM throughout. Also, the concentration for total growth inhibition (TGI) in the test on SNB-75 CNS and in the test with SR leukemia was > 100 µM throughout.

Consider `Cc1ccc(C2C(Cl)C(=O)N2NC(=O)c2ccc(N)cc2)cc1` (centres undefined), for which the total growth inhibition concentration (TGI) in the test on A498 renal was 56.4 µM; with CAKI-1 renal, 38.3 µM; with COLO 205 colon, 44.6 µM; with HCC-2998 colon it was > 100 µM; with HCT-15 colon, 29.9 µM; in the test with KM12 colon it was > 100 µM. Also, the TGI in the test with M14 melanoma was 36.6 µM; in the test with SNB-75 CNS, > 100 µM.

What is called TGI is the concentration giving total growth inhibition. The low end stands for more potent growth arrest, the high end for less potent growth arrest. A word on the GI50: it is the concentration giving 50% growth inhibition.
